The text below walks through data of US10722514B2 (FLX Bio, Inc., priority 2017, dated 2020).

Like-named read-outs stand apart in the source and are kept apart here.

The target of the assay is T1, recombinant full-length USP7 (Homo sapiens, UniProt Q93009).
T1 construct: A 25 μl reaction volume containing recombinant full-length USP7 (62 pM)
Kind of assay: USP7-mediated ubiquitin-rhodamine cleavage assay. In kind it is biochemical. The following applies: recombinant full-length USP7 62 pM, ubiquitin-rhodamine 100 nM, 1 hour reaction at room temperature, read-out: Potency (USP7 IC50). The procedure, abridged: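 Compounds are first incubated with 62 pM enzyme for 30 min at room temperature in pH 7.3 HEPES buffer containing TCEP and BSA. Cleavage of 100 nM ubiquitin-rhodamine proceeds for 1 h before an acid quench, and IC50 is derived from fluorescence.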

T1 sequence (Q93009 whole entry): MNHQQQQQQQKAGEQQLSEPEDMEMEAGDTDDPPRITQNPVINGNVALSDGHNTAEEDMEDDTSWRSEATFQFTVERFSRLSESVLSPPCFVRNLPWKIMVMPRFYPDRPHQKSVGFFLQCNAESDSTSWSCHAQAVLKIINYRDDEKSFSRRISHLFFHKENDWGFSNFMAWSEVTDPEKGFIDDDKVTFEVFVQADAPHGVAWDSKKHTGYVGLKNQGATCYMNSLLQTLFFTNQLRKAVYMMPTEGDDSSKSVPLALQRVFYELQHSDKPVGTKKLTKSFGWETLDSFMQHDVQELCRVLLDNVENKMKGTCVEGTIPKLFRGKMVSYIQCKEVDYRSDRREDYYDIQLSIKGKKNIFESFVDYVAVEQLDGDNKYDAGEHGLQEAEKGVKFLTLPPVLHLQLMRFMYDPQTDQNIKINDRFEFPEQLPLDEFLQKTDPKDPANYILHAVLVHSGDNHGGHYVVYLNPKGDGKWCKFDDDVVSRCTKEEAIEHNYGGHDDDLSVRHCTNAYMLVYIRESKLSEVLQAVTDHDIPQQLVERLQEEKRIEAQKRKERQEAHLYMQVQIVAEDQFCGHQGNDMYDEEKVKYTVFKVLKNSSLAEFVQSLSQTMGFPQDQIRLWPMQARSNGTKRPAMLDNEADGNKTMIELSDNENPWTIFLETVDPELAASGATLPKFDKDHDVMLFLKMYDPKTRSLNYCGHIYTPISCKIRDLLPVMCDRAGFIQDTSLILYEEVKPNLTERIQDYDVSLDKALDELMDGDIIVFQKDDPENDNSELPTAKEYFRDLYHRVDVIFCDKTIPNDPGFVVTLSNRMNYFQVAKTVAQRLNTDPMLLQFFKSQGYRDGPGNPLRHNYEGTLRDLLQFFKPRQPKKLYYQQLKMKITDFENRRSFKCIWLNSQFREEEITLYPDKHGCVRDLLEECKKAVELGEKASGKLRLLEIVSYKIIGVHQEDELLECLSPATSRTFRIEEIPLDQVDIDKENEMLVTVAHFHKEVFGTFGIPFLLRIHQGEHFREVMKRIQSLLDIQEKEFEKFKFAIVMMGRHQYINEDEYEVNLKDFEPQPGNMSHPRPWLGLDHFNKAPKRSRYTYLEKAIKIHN

The term IC50 denotes the concentration that gives 50% inhibition. For `CO[C@H]1CNC[C@H]1Oc1c(C)cc(Cl)cc1-c1ccnc2cc(Cn3c(=O)ccn(CC(F)(F)F)c3=O)sc12` [Example 655, 3-[[7-[5-chloro-2-[(3R,4S)-4-methoxypyrrolidin-3-yl]oxy-3-methyl-phenyl]thieno[3,2-b]pyridin-2-yl]methyl]-1-(2,2,2-trifluoroethyl)pyrimidine-2,4-dione], the IC50 (30-minute pre-incubation) is less than 1000 nM.
Consider `Cc1cc(Cl)cc(-c2ccnc3cc(Cn4c(=O)ccn(CC(F)(F)F)c4=O)sc23)c1O[C@H]1CCCNCC1` [Example 656, 3-[[7-[2-[(4S)-azepan-4-yl]oxy-5-chloro-3-methyl-phenyl]thieno[3,2-b]pyridin-2-yl]methyl]-1-(2,2,2-trifluoroethyl)pyrimidine-2,4-dione; 2,2,2-trifluoroacetic acid], for which, for the setting “30-minute pre-incubation”, the IC50 was less than 1000 nM.
Still for that read-out and setting: for `Cc1cc(Cl)cc(-c2ccnc3cc(Cn4c(=O)ccn(CC(F)(F)F)c4=O)sc23)c1OC1CC(N2CCOC[C@H]2C)C1` (stereo partly drawn) [Example 657, 3-[[7-[5-chloro-3-methyl-2-[3-[(3R)-3-methylmorpholin-4-yl]cyclobutoxy]phenyl]thieno[3,2-b]pyridin-2-yl]methyl]-1-(2,2,2-trifluoroethyl)pyrimidine-2,4-dione; 2,2,2-trifluoroacetic acid] the value was less than 1000 nM; for `Cc1cc(Cl)cc(-c2ccnc3cc(Cn4c(=O)ccn(CC(F)(F)F)c4=O)sc23)c1OC1CC(N2CCOC[C@@H]2C)C1` (stereo partly drawn) [Example 658, 3-[[7-[5-chloro-3-methyl-2-[3-[(3S)-3-methylmorpholin-4-yl]cyclobutoxy]phenyl]thieno[3,2-b]pyridin-2-yl]methyl]-1-(2,2,2-trifluoroethyl)pyrimidine-2,4-dione; 2,2,2-trifluoroacetic acid], less than 1000 nM.
In the case of `Cc1cc(Cl)cc(-c2ccnc3cc(Cn4c(=O)ccn(CC(F)(F)F)c4=O)sc23)c1O[C@H]1CCCN(C(=O)C(F)(F)F)C1` [Example 659, 3-[[7-[5-chloro-3-methyl-2-[[(3S)-1-(2,2,-trifluoroacetyl)-3-piperidyl]oxy]phenyl]thieno[3,2-b]pyridin-2-yl]methyl]-1-(2,2,2-trifluoroethyl)pyrimidine-2,4-dione], the IC50 (30-minute pre-incubation) was less than 1000 nM.
On the same count and under the same terms, for `CC(=O)N1CCC[C@H](Oc2c(C)cc(Cl)cc2-c2ccnc3cc(Cn4c(=O)ccn(CC(F)(F)F)c4=O)sc23)C1` [Example 660, 3-[[7-[2-[[(3S)-1-acetyl-3-piperidyl]oxy]-5-chloro-3-methyl-phenyl]thieno[3,2-b]pyridin-2-yl]methyl]-1-(2,2,2-trifluoroethyl)pyrimidine-2,4-dione] the value was less than 1000 nM; for `Cc1cc(Cl)cc(-c2ccnc3cc(Cn4c(=O)ccn(CC(F)(F)F)c4=O)sc23)c1OCCN1CCCC1` [Example 661, 3-[[7-[5-chloro-3-methyl-2-(2-pyrrolidin-1-ylethoxy)phenyl]thieno[3,2-b]pyridin-2-yl]methyl]-1-(2,2,2-trifluoroethyl)pyrimidine-2,4-dione; 2,2,2-trifluoroacetic acid], less than 1000 nM.
`Cc1cc(Cl)cc(-c2ccnc3cc(Cn4c(=O)ccn(CC(F)(F)F)c4=O)sc23)c1OCCN1CCOCC1` [Example 662, 3-[[7-[5-chloro-3-methyl-2-(2-morpholinoethoxy)phenyl]thieno[3,2-b]pyridin-2-yl]methyl]-1-(2,2,2-trifluoroethyl)pyrimidine-2,4-dione; 2,2,2-trifluoroacetic acid]: the IC50 (30-minute pre-incubation) was less than 1000 nM.
For the compound `Cc1cc(Cl)cc(-c2ccnc3cc(Cn4c(=O)ccn(CC(F)(F)F)c4=O)sc23)c1OC1(C)CCNC1` (stereo not shown) [Example 663, 3-[[7-[5-chloro-3-methyl-2-(3-methylpyrrolidin-3-yl)oxy-phenyl]thieno[3,2-b]pyridin-2-yl]methyl]-1-(2,2,2-trifluoroethyl)pyrimidine-2,4-dione], the IC50 (30-minute pre-incubation) is less than 1000 nM.
On the same count and under the same terms, for `Cc1cc(Cl)cc(-c2ccnc3cc(Cn4c(=O)ccn(CC(F)(F)F)c4=O)sc23)c1OC1CCCC1` [Example 664, 3-[[7-[5-chloro-2-(cyclopentoxy)-3-methyl-phenyl]thieno[3,2-b]pyridin-2-yl]methyl]-1-(2,2,2-trifluoroethyl)pyrimidine-2,4-dione] the value was less than 1000 nM.
Same read-out and setting: for `Cc1cc(Cl)cc(-c2ccnc3cc(Cn4c(=O)ccn(CC(F)(F)F)c4=O)sc23)c1OC1CCCCC1` [Example 665, 3-[[7-[5-chloro-2-(cyclohexoxy)-3-methyl-phenyl]thieno[3,2-b]pyridin-2-yl]methyl]-1-(2,2,2-trifluoroethyl)pyrimidine-2,4-dione] the value was less than 1000 nM; for `Cc1cc(Cl)cc(-c2ccnc3cc(Cn4c(=O)ccn(CC(F)(F)F)c4=O)sc23)c1OCCN1CCCCC1` [Example 666, 3-[[7-[5-chloro-3-methyl-2-[2-(1-piperidyl)ethoxy]phenyl]thieno[3,2-b]pyridin-2-yl]methyl]-1-(2,2,2-trifluoroethyl)pyrimidine-2,4-dione], less than 1000 nM.
Still for that read-out and setting: next, `Cc1cc(Cl)cc(-c2ccnc3cc(Cn4c(=O)ccn(CC(F)(F)F)c4=O)sc23)c1OC1CC(N2CCC(F)(F)CC2)C1` (stereo not shown) [Example 668, 3-[[7-[5-chloro-2-[3-(4,4-difluoro-1-piperidyl)cyclobutoxy]-3-methyl-phenyl]thieno[3,2-b]pyridin-2-yl]methyl]-1-(2,2,2-trifluoroethyl)pyrimidine-2,4-dione; 2,2,2-trifluoroacetic acid]: less than 1000 nM.
Take `Cc1cc(Cl)cc(-c2ccnc3cc(Cn4c(=O)ccn(CC(F)(F)F)c4=O)sc23)c1OCC1COC1` [Example 669, 3-[[7-[5-chloro-3-methyl-2-(oxetan-3-ylmethoxy)phenyl]thieno[3,2-b]pyridin-2-yl]methyl]-1-(2,2,2-trifluoroethyl)pyrimidine-2,4-dione]: for the setting “30-minute pre-incubation”, the IC50 was less than 1000 nM.
In the case of `Cc1cc(Cl)cc(-c2ccnc3cc(Cn4c(=O)ccn(CC(F)(F)F)c4=O)sc23)c1OC1CCOCC1` [Example 670], where the note is “30-minute incubation”, the IC50 was less than 1000 nM.
Still for that read-out and setting: for `Cc1cc(Cl)cc(-c2ccnc3cc(Cn4c(=O)ccn(CC(F)(F)F)c4=O)sc23)c1OC1COC1` [Example 671, 3-[[7-[5-chloro-3-methyl-2-(oxetan-3-yloxy)phenyl]thieno[3,2-b]pyridin-2-yl]methyl]-1-(2,2,2-trifluoroethyl)pyrimidine-2,4-dione] the value was less than 1000 nM; for `Cc1cc(Cl)cc(-c2ccnc3cc(Cn4c(=O)ccn(CC(F)(F)F)c4=O)sc23)c1OC1CC(N2CCC(O)C2)C1` (stereo not shown) [Example 672, 3-[[7-[5-chloro-2-[3-(3-hydroxypyrrolidin-1-yl)cyclobutoxy]-3-methyl-phenyl]thieno[3,2-b]pyridin-2-yl]methyl]-1-(2,2,2-trifluoroethyl)pyrimidine-2,4-dione; 2,2,2-trifluoroacetic acid], less than 1000 nM; for `Cc1cc(Cl)cc(-c2ccnc3cc(Cn4c(=O)ccn(CC(F)(F)F)c4=O)sc23)c1OCC1(C(F)F)CNC1` [Example 673, 3-[[7-[5-chloro-2-[[3-(difluoromethyl)azetidin-3-yl]methoxy]-3-methyl-phenyl]thieno[3,2-b]pyridin-2-yl]methyl]-1-(2,2,2-trifluoroethyl)pyrimidine-2,4-dione], less than 1000 nM.
Still for that read-out and setting: for `COC1CCC(Oc2c(C)cc(Cl)cc2-c2ccnc3cc(Cn4c(=O)ccn(CC(F)(F)F)c4=O)sc23)CC1` (stereo not shown) [Example 674, 3-[[7-[5-chloro-2-(4-methoxycyclohexoxy)-3-methyl-phenyl]thieno[3,2-b]pyridin-2-yl]methyl]-1-(2,2,2-trifluoroethyl)pyrimidine-2,4-dione] the value was less than 1000 nM; for `Cc1cc(Cl)cc(-c2ccnc3cc(Cn4c(=O)ccn(CC(F)(F)F)c4=O)sc23)c1OC1CC(N2C[C@@H]3C[C@H]2CO3)C1` (stereo partly drawn) [Example 675, 3-[[7-[5-chloro-3-methyl-2-[3-[(1S,4S)-2-oxa-5-azabicyclo[2.2.1]heptan-5-yl]cyclobutoxy]phenyl]thieno[3,2-b]pyridin-2-yl]methyl]-1-(2,2,2-trifluoroethyl)pyrimidine-2,4-dione], less than 1000 nM; for `Cc1cc(Cl)cc(-c2ccnc3cc(Cn4c(=O)ccn(CC(F)(F)F)c4=O)sc23)c1OC1CC(N2[C@@H]3CC[C@H]2COC3)C1` (stereo partly drawn) [Example 676, 3-[[7-[5-chloro-3-methyl-2-[3-[(1R,5S)-3-oxa-8-azabicyclo[3.2.1]octan-8-yl]cyclobutoxy]phenyl]thieno[3,2-b]pyridin-2-yl]methyl]-1-(2,2,2-trifluoroethyl)pyrimidine-2,4-dione], less than 1000 nM.
Same read-out and setting: next, `Cc1cc(Cl)cc(-c2ccnc3cc(Cn4c(=O)ccn(CC(F)(F)F)c4=O)sc23)c1OC1CCC(O)CC1` (stereo not shown) [Example 677, 3-[[7-[5-chloro-2-(4-hydroxycyclohexoxy)-3-methyl-phenyl]thieno[3,2-b]pyridin-2-yl]methyl]-1-(2,2,2-trifluoroethyl)pyrimidine-2,4-dione]: less than 1000 nM; `Cc1cc(Cl)cc(-c2ccnc3cc(Cn4c(=O)ccn(CC(F)(F)F)c4=O)sc23)c1OC1CC(O)C1` (stereo not shown) [Example 678, 3-[[7-[5-chloro-2-(3-hydroxycyclobutoxy)-3-methyl-phenyl]thieno[3,2-b]pyridin-2-yl]methyl]-1-(2,2,2-trifluoroethyl)pyrimidine-2,4-dione]: less than 1000 nM.
In the case of `Cc1cc(Cl)cc(-c2ccnc3cc(Cn4c(=O)ccn(CC(F)(F)F)c4=O)sc23)c1OC1CC2(COC2)C1` [Example 679, 3-[[7-[5-chloro-3-methyl-2-(2-oxaspiro[3.3]heptan-6-yloxy)phenyl]thieno[3,2-b]pyridin-2-yl]methyl]-1-(2,2,2-trifluoroethyl)pyrimidine-2,4-dione], the IC50 (30-minute incubation) is less than 1000 nM.
On the same count and under the same terms, for `Cc1cc(Cl)cc(-c2ccnc3cc(Cn4c(=O)ccn(CC(F)(F)F)c4=O)sc23)c1OC1CCS(=O)(=O)CC1` [Example 680, 3-[[7-[5-chloro-2-(1,1-dioxoothian-4-yl)oxy-3-methyl-phenyl]thieno[3,2-b]pyridin-2-yl]methyl]-1-(2,2,2-trifluoroethyl)pyrimidine-2,4-dione] the value was less than 1000 nM.
